Measurements taken from patent US11332463B2, “Spiropiperidine allosteric modulators of nicotinic acetylcholine receptors” (Merck Sharp & Dohme Corp., priority 2018, dated 2022).
Where two headings read alike, the source gives them in different places.

Molecular target: T1, human α7 nicotinic acetylcholine receptor (HEK cell line stably expressing human RIC-3 and human α7) (Homo sapiens, UniProt P36544)
T1 construct: host or cells: HEK cell line (PrecisION hnAChR α7/RIC-3)
Test: Automated patch-clamp electrophysiology functional assay (Assay A), IonFlux HT, whole-cell population patch
Format: cell-based

[1] = HEK cells expressing human α7/RIC-3, test compound with or without 40 μM acetylcholine, holding potential −60 mV, room temperature, read-out: α7 nAChR Potency
[2] = automated patch-clamp electrophysiology functional assay (Assay A), read-out: α7 nAChR EC50

T1 sequence (P36544 23-502): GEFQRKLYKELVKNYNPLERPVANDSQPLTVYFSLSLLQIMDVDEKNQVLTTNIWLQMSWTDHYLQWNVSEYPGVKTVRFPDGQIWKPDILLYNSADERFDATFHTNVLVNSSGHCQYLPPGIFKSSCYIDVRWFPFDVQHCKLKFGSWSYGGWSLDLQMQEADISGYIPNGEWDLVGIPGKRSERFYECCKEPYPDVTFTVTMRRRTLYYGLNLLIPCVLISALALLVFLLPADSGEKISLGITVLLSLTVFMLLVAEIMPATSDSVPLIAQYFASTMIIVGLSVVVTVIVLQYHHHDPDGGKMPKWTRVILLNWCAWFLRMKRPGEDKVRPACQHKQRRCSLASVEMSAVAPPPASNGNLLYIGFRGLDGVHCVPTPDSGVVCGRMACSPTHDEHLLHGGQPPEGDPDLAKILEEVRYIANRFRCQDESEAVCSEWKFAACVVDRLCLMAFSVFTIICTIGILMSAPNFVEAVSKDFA

Compound | EC50 [1] | EC50 [2]
Cc1ncccc1-c1nc([C@@H]2CC23CCN(S(N)(=O)=O)CC3)no1 [Example E2] | 0.5 to 5 µM | 1.1 µM
NS(=O)(=O)N1CCC2(CC1)C[C@H]2c1noc(Cc2c(F)cccc2C(F)(F)F)n1 [Example E4] | 5 to 50 µM | 7.2 µM
NS(=O)(=O)N1CCC2(CC1)C[C@H]2c1noc(Cc2cc(C(F)(F)F)ccc2F)n1 [Example E5] | 0.5 to 5 µM | –
Cc1cccc(C)c1Cc1nc([C@@H]2CC23CCN(S(N)(=O)=O)CC3)no1 [Example E6] | 0.5 to 5 µM | 0.93 µM
NS(=O)(=O)N1CCC2(CC1)C[C@H]2c1noc(Cc2cc(F)ccc2C(F)(F)F)n1 [Example E9] | 0.5 to 5 µM | –
NS(=O)(=O)N1CCC2(CC1)C[C@H]2c1noc(C2(c3cc(F)ccc3F)CCC2)n1 [Example E10] | 0.5 to 5 µM | 3.4 µM
NS(=O)(=O)N1CCC2(CC1)C[C@H]2c1noc(Cc2ccc(F)cc2C(F)(F)F)n1 [Example E12] | 0.5 to 5 µM | 3.7 µM
NS(=O)(=O)N1CCC2(CC1)C[C@H]2c1noc(C2(c3cccc(C(F)(F)F)c3)CC2)n1 [Example E14] | 0.5 to 5 µM | 2 µM
Cc1ccc(C)c(-c2nc([C@@H]3CC34CCN(S(N)(=O)=O)CC4)no2)n1 [Example E16] | 0.5 to 5 µM | 1.3 µM
NS(=O)(=O)N1CCC2(CC1)C[C@H]2c1noc(-c2cccc(C(F)(F)F)n2)n1 [Example E17] | 0.5 to 5 µM | 1.4 µM
NS(=O)(=O)N1CCC2(CC1)C[C@H]2c1noc(-c2ccnc(OCC(F)(F)F)c2)n1 [Example E18] | 0.5 to 5 µM | 1.1 µM
NS(=O)(=O)N1CCC2(CC1)C[C@H]2c1noc(C2CC3(CCC3)C2)n1 [Example E20] | 0.5 to 5 µM | 2.7 µM
NS(=O)(=O)N1CCC2(CC1)C[C@H]2c1noc(-c2cnn(CC(F)(F)F)c2)n1 [Example E22] | 0.5 to 5 µM | 3 µM
NS(=O)(=O)N1CCC2(CC1)C[C@H]2c1noc(-c2ocnc2C(F)(F)F)n1 [Example E23] | 0.5 to 5 µM | 4.5 µM
CCc1ncoc1-c1nc([C@@H]2CC23CCN(S(N)(=O)=O)CC3)no1 [Example E24] | 0.5 to 5 µM | 3.6 µM
NS(=O)(=O)N1CCC2(CC1)C[C@H]2c1noc(-c2ccn(CC(F)(F)F)n2)n1 [Example E25] | 0.5 to 5 µM | 2.2 µM

Compound | EC50 [1] | EC50 [2]
NS(=O)(=O)N1CCC2(CC1)C[C@H]2c1noc(-c2conc2C2CC2)n1 [Example E26] | 0.5 to 5 µM | 0.57 µM
Cc1onc(-c2nc([C@@H]3CC34CCN(S(N)(=O)=O)CC4)no2)c1C [Example E27] | 0.5 to 5 µM | 1.3 µM
Cc1noc(C)c1Cc1nc([C@@H]2CC23CCN(S(N)(=O)=O)CC3)no1 [Example E28] | 0.5 to 5 µM | –
NS(=O)(=O)N1CCC2(CC1)C[C@H]2c1noc(-c2conc2C(F)(F)F)n1 [Example E29] | 0.5 to 5 µM | 1.6 µM
NS(=O)(=O)N1CCC2(CC1)C[C@H]2c1noc(-c2ccnn2C2CC2)n1 [Example E30] | 0.5 to 5 µM | 0.78 µM
NS(=O)(=O)N1CCC2(CC1)C[C@H]2c1noc(-c2cc(-n3ccnc3)ncc2C(F)(F)F)n1 [Example E31] | 0.5 to 5 µM | 4.3 µM
Cc1cnc2cc(-c3nc([C@@H]4C(F)(F)C45CCN(S(N)(=O)=O)CC5)no3)ccn12 [Example E36] | 0.5 to 5 µM | 1.1 µM
NS(=O)(=O)N1CCC2(CC1)[C@H](c1noc(-c3cnn4c3CCCC4)n1)C2(F)F [Example E40] | 0.5 to 5 µM | 0.84 µM
NS(=O)(=O)N1CCC2(CC1)[C@H](c1noc(-c3cnn4c3CCC4)n1)C2(F)F [Example E42] | 0.5 to 5 µM | 1.1 µM
Cn1nc(C(F)(F)F)cc1-c1nc([C@@H]2C(F)(F)C23CCN(S(N)(=O)=O)CC3)no1 [Example E45] | 0.5 to 5 µM | 0.55 µM
NS(=O)(=O)N1CCC2(CC1)[C@H](c1noc(-c3cc(C(F)(F)F)n(C4CC4)n3)n1)C2(F)F [Example E46] | 0.5 to 5 µM | 0.51 µM
NS(=O)(=O)N1CCC2(CC1)C[C@H]2c1noc(-c2ccnnc2C2CC2)n1 [Example E50] | 0.5 to 5 µM | 1.4 µM
CC(C)Oc1cc(-c2nc([C@@H]3C(F)(F)C34CCN(S(N)(=O)=O)CC4)no2)ccn1 [Example E51] | 0.5 to 5 µM | 0.53 µM
Cc1cnn(C)c1-c1nc([C@@H]2CC23CCN(S(N)(=O)=O)CC3)no1 [Example E52] | 0.5 to 5 µM | 1.7 µM
NS(=O)(=O)N1CCC2(CC1)[C@H](c1noc(-c3cnn4c3CSC4)n1)C2(F)F [Example E53] | 0.5 to 5 µM | 1.2 µM
NS(=O)(=O)N1CCC2(CC1)[C@H](c1noc(-c3cccnc3)n1)C2(F)F [Example E56] | 0.5 to 5 µM | 2.6 µM

The remaining lines, values ahead:

EC50 [1] | EC50 [2] | Compound
0.5 to 5 µM | 1.2 µM | NS(=O)(=O)N1CCC2(CC1)C[C@H]2c1noc(-c2c(F)cccc2C(F)(F)F)n1 [Example D12]
0.5 to 5 µM | 0.7 µM | COc1ccc(-c2nc([C@@H]3CC34CCN(S(N)(=O)=O)CC4)no2)cc1 [Example D13]
0.5 to 5 µM | – | NS(=O)(=O)N1CCC2(CC1)C[C@H]2c1noc(-c2ccc(OC(F)F)cc2)n1 [Example D14]
0.5 to 5 µM | 1.2 µM | NS(=O)(=O)N1CCC2(CC1)C[C@H]2c1noc(-c2ccc(F)cc2F)n1 [Example D15]
0.1 to 0.5 µM | 0.16 µM | NS(=O)(=O)N1CCC2(CC1)C[C@H]2c1noc(-c2ccc(F)cc2C(F)(F)F)n1 [Example D16]
0.5 to 5 µM | 0.63 µM | NS(=O)(=O)N1CCC2(CC1)C[C@H]2c1noc(-c2ccccc2C(F)(F)F)n1 [Example D17]
0.1 to 0.5 µM | 0.16 µM | NS(=O)(=O)N1CCC2(CC1)C[C@H]2c1noc(-c2ccccc2OCC(F)(F)F)n1 [Example D18]
0.1 to 0.5 µM | – | Cc1ccc(-c2nc([C@@H]3CC34CCN(S(N)(=O)=O)CC4)no2)c(C)c1 [Example D19]
0.1 to 0.5 µM | 0.2 µM | NS(=O)(=O)N1CCC2(CC1)C[C@H]2c1noc(-c2ccccc2OC(F)(F)F)n1 [Example D20]
0.1 to 0.5 µM | 0.24 µM | NS(=O)(=O)N1CCC2(CC1)C[C@H]2c1noc(-c2cc(F)ccc2OC(F)(F)F)n1 [Example D21]
0.1 to 0.5 µM | 0.41 µM | NS(=O)(=O)N1CCC2(CC1)C[C@H]2c1noc(-c2cc(Cl)ccc2OC(F)(F)F)n1 [Example D22]
0.5 to 5 µM | 1.4 µM | CC(C)(O)c1ccc(-c2nc([C@@H]3CC34CCN(S(N)(=O)=O)CC4)no2)cc1 [Example D23]
0.1 to 0.5 µM | 0.24 µM | NS(=O)(=O)N1CCC2(CC1)C[C@H]2c1noc(-c2ccc(F)cc2OC(F)F)n1 [Example D24]
0.1 to 0.5 µM | 0.13 µM | Cc1cc(C)c(-c2nc(C3CC34CCN(S(N)(=O)=O)CC4)no2)cc1C (stereo not drawn) [Example D25]
< 0.1 µM | 0.013 µM | NS(=O)(=O)N1CCC2(CC1)C(c1noc(-c3ccccc3C3CC3)n1)C2(F)F (stereo not drawn) [Example D26]
0.1 to 0.5 µM | 0.31 µM | Cc1cn(C2CC2)c2ccc(-c3nc([C@@H]4CC45CCN(S(N)(=O)=O)CC5)no3)cc12 [Example E1]
0.1 to 0.5 µM | 0.29 µM | Cc1ccc(C(F)(F)F)nc1-c1nc([C@@H]2CC23CCN(S(N)(=O)=O)CC3)no1 [Example E19]

EC50 [1] | EC50 [2] | Compound
0.1 to 0.5 µM | 0.4 µM | CCn1nc(C)cc1-c1nc([C@@H]2CC23CCN(S(N)(=O)=O)CC3)no1 [Example E21]
0.1 to 0.5 µM | 0.33 µM | Cn1ncc(C(F)(F)F)c1-c1nc([C@@H]2CC23CCN(S(N)(=O)=O)CC3)no1 [Example E32]
0.1 to 0.5 µM | 0.47 µM | NS(=O)(=O)N1CCC2(CC1)[C@H](c1noc(-c3ccnc(OC4CC4)c3)n1)C2(F)F [Example E33]
0.1 to 0.5 µM | 0.13 µM | NS(=O)(=O)N1CCC2(CC1)[C@H](c1noc(-c3ccnn3C3CC3)n1)C2(F)F [Example E34]
0.1 to 0.5 µM | 0.25 µM | CC(C)(C)n1nccc1-c1nc([C@@H]2C(F)(F)C23CCN(S(N)(=O)=O)CC3)no1 [Example E35]
< 0.1 µM | 0.078 µM | CCn1cc(-c2nc([C@@H]3C(F)(F)C34CCN(S(N)(=O)=O)CC4)no2)c(C2CC2)n1 [Example E37]
0.1 to 0.5 µM | 0.27 µM | Cn1ncc(-c2nc([C@@H]3C(F)(F)C34CCN(S(N)(=O)=O)CC4)no2)c1C(F)(F)F [Example E38]
0.1 to 0.5 µM | 0.15 µM | CC(C)(C)n1ncc(-c2nc([C@@H]3C(F)(F)C34CCN(S(N)(=O)=O)CC4)no2)c1C(F)(F)F [Example E39]
< 0.1 µM | 0.015 µM | Cc1n[nH]c(C2CC2)c1-c1nc([C@@H]2C(F)(F)C23CCN(S(N)(=O)=O)CC3)no1 [Example E41]
0.1 to 0.5 µM | 0.5 µM | Cn1nccc1-c1nc([C@@H]2C(F)(F)C23CCN(S(N)(=O)=O)CC3)no1 [Example E43]
0.1 to 0.5 µM | – | Cn1nc(-c2nc([C@@H]3C(F)(F)C34CCN(S(N)(=O)=O)CC4)no2)c2c1CCC2 [Example E44]
0.1 to 0.5 µM | – | NS(=O)(=O)N1CCC2(CC1)[C@H](c1noc(-c3c4c(nn3C3CC3)CCCC4)n1)C2(F)F [Example E47]
< 0.1 µM | 0.06 µM | NS(=O)(=O)N1CCC2(CC1)[C@H](c1noc(-c3c(C(F)(F)F)cnn3C3CC3)n1)C2(F)F [Example E48]
0.1 to 0.5 µM | 0.27 µM | NS(=O)(=O)N1CCC2(CC1)[C@H](c1noc(-c3ccnnc3C3CC3)n1)C2(F)F [Example E49]
0.1 to 0.5 µM | 0.5 µM | Cc1c(-c2nc([C@@H]3C(F)(F)C34CCN(S(N)(=O)=O)CC4)no2)c(C(F)(F)F)nn1C1CC1 [Example E54]
< 0.1 µM | 0.03 µM | NS(=O)(=O)N1CCC2(CC1)[C@H](c1noc(-c3c(C4CC4)noc3C(F)(F)F)n1)C2(F)F [Example E55]
